From US20250129135A1, “Multi-Agonist and Use Thereof” (priority 2021, published 2025)
Starred links: 1 amine or outer side, 2 acyl side, 3 side chain; linkers in the order of their positions; H or OH if unused. Non-standard residues stand in square brackets, D forms with d. Residues, ends and D or L forms follow the SMILES beside them. Groups on a side chain read outwards from the residue. *: point of attachment. C20 diacid = O=C(O)CCCCCCCCCCCCCCCCCCC(=O)*; αMePhe(2-F) = C[C@](N)(Cc1ccccc1F)C(=O)O; γGlu = O=C(O)[C@H](CCC(=O)[*:2])N[*:1]; αMeL = CC(C)C[C@](C)(N)C(=O)O; AEEA = NCCOCCOCC(=O)O; Ac3c = NC1(C(=O)O)CC1; Aib = CC(C)(N)C(=O)O

Key:
Human GIP R = molecular target: T1, Human GIP R (Homo sapiens, UniProt P48546); assay: cAMP (HTRF) activity in CHO cells stably overexpressing GIP receptor; format: cell-based; conditions: EC50 of human GIP / EC50 of compound
T1 construct: expressed in transfected cells; host or cells: CHO
T1 sequence (P48546 22-466): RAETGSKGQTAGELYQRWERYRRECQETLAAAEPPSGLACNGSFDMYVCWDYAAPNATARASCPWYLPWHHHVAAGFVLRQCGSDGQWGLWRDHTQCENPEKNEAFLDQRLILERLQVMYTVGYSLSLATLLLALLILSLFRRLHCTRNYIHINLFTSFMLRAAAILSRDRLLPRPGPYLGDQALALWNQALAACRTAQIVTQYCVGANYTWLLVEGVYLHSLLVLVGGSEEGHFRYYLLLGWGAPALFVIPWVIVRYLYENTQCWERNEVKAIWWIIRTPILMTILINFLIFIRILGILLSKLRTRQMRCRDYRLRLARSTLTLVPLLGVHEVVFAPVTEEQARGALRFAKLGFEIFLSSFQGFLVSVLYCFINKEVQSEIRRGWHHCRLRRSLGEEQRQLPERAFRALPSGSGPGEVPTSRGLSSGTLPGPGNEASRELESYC
Outline: (§1)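 Agonism was assessed from intracellular cAMP by HTRF. Cells resuspended in HBSS were treated with compound for 60 minutes at room temperature, then with detection reagent for a further 60 minutes. EC50 (nM) values came from concentration–response curves.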

Human GCG R = molecular target: T2, Human GCG R (Homo sapiens, UniProt P47871); assay: cAMP (HTRF) activity in HEK-293 cells stably overexpressing human GCG receptor; format: cell-based; conditions: EC50 of human GCG / EC50 of compound
T2 construct: expressed in transfected cells; host or cells: HEK-293
Outline: as §1

RIN-m5F cells = format: cell-based, rat
Outline: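 cAMP production measured in RIN-m5F cells resuspended in HBSS; compounds incubated 60 min at room temperature, then detection reagent added for a further 60 min before read-out.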

3T3-L1 adipocytes = test system: 3T3-L1 adipocytes
Outline: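 Mouse 3T3-L1 preadipocytes were differentiated with IBMX, dexamethasone and insulin for 5 days, then insulin plus 10 uM rosiglitazone for 3 days, then 10% FBS medium for 2–3 days. Mature adipocytes received 10-point, 3-fold compound dilutions for 60 min at room temperature. cAMP was read by kit detection reagent after a further 60 min, with concentration-effect curves fitted.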

[1] = test system: human primary liver cells; format: cell-based
Outline: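 Human primary hepatocytes, thawed at 37° C and resuspended in HBSS, exposed to compound for 60 min at room temperature. Detection reagent then added for 60 min before cAMP readout.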

Human GLP-1R = Human GLP-1R (Homo sapiens, UniProt P43220); assay: cAMP (HTRF) activity in HEK-293 cells stably overexpressing human GLP-1 receptor; format: cell-based; set-up: expressed in transfected cells; host or cells: HEK-293
Outline: as §1

Chain of Human GLP-1R (P43220 24-463): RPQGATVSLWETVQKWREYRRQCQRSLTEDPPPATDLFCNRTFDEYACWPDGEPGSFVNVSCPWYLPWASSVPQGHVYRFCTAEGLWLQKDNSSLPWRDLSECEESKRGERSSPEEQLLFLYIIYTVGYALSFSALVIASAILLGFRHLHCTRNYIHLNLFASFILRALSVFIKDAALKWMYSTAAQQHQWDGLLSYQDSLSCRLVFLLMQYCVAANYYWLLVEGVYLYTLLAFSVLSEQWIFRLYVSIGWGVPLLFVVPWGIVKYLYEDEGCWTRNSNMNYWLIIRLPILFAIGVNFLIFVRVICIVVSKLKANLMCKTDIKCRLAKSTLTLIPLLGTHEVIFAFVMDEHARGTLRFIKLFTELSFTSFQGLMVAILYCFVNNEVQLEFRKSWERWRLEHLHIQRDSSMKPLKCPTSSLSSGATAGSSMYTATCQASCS
T2 sequence (P47871 26-477): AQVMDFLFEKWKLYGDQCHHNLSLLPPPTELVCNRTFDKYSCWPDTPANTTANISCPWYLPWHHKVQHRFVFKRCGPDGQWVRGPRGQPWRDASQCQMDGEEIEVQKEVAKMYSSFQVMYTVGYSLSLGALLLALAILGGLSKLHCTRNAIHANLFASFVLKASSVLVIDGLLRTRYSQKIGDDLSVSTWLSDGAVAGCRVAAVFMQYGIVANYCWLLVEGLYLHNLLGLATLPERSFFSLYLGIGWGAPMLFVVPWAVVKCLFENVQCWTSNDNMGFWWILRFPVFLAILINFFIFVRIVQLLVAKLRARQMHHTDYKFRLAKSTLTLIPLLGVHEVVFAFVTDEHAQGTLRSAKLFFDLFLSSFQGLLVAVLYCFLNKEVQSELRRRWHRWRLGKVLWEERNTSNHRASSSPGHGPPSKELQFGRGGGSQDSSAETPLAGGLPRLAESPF

CC[C@H](C)[C@H](NC(=O)[C@H](Cc1ccccc1)NC(=O)[C@H](C)NC(=O)C(C)(C)NC(=O)[C@H](CCC(N)=O)NC(=O)[C@H](C)NC(=O)[C@H](CCCCNC(=O)COCCOCCNC(=O)COCCOCCNC(=O)CC[C@H](NC(=O)CCCCCCCCCCCCCCCCCCC(=O)O)C(=O)O)NC(=O)[C@H](CCCCN)NC(=O)[C@H](CC(=O)O)NC(=O)[C@H](CC(C)C)NC(=O)[C@](C)(CC(C)C)NC(=O)[C@@H](NC(=O)[C@H](CO)NC(=O)[C@H](Cc1ccc(O)cc1)NC(=O)[C@H](CC(=O)O)NC(=O)[C@H](CO)NC(=O)[C@@H](NC(=O)[C@](C)(Cc1ccccc1F)NC(=O)[C@@H](NC(=O)CNC(=O)[C@H](CCC(N)=O)NC(=O)C(C)(C)NC(=O)[C@@H](N)Cc1ccc(O)cc1)[C@@H](C)O)[C@@H](C)O)[C@@H](C)CC)C(=O)N[C@@H](CCC(=O)O)C(=O)N[C@@H](Cc1ccc(O)cc1)C(=O)N[C@@H](CC(C)C)C(=O)N[C@@H](CC(C)C)C(=O)N[C@@H](CCC(=O)O)C(=O)N[C@@H](CO)C(=O)N[C@@H](Cc1c[nH]cn1)C(=O)N1CCC[C@H]1C(=O)N[C@@H](CO)C(=O)N[C@@H](CO)C(=O)NC(C)(C)C(=O)N[C@@H](Cc1c[nH]cn1)C(=O)N1CCC[C@H]1C(=O)N1CCC[C@H]1C(=O)NC1(C(=O)N[C@@H](CO)C(N)=O)CC1 [Compound 43] (H-Y[Aib]QGT[αMePhe(2-F)]TSDYSI[αMeL]LDKK([AEEA-AEEA-γGlu-C20 diacid])AQ[Aib]AFIEYLLESHPSS[Aib]HPP[Ac3c]S-NH2)
Human GIP R Rel. A (Relative Activity) (Human GIP R): 441.46%
Human GCG R Rel. A (Relative Activity) (Human GCG R): 44.88%
EC50 (RIN-m5F cells): 0.26 nM
Rel. A (Relative Activity) on RIN-m5F (RIN-m5F cells; relative to GLP-1(7-37)): 396.92%
EC50 (3T3-L1 adipocytes): 1.36 nM
Rel. A (Relative Activity) on 3T3-L1 adipocyte (3T3-L1 adipocytes; relative to GIP): 279.97%
EC50 [1]: 0.463 nM
Rel. A (Relative Activity) on human primary liver cells ([1]; relative to GCG): 840.39%
Human GLP-1R Rel. A (Relative Activity) (Human GLP-1R; EC50 of human GLP-1 (7-37) / EC50 of compound): 440.00%
EC50 (Human GLP-1R; stable transfected cell cAMP activity, at least 3 independent tests): 0.01 nM
